Measured values as given in PubChem BioAssay (NCI).
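Each compound was tested at five concentrations against cells in 96-well plates for 48 hours. TGI is the concentration that stops growth completely.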

How the values were obtained:
Test in all cases: growth of human tumour cells (NCI), 48 h
[1] = test system: CAKI-1 renal
[2] = test system: DU-145 prostate
[3] = test system: HL-60(TB) leukemia
[4] = test system: K-562 leukemia
[5] = test system: MCF7 breast
[6] = test system: NCI-H23 lung
[7] = test system: RPMI-8226 leukemia
[8] = test system: SK-MEL-2 melanoma
[9] = test system: SNB-19 CNS
[10] = test system: UACC-62 melanoma

Row | SMILES | TGI [1] [µM] | TGI [2] [µM] | TGI [3] [µM] | TGI [4] [µM] | TGI [5] [µM] | TGI [6] [µM] | TGI [7] [µM] | TGI [8] [µM] | TGI [9] [µM] | TGI [10] [µM]
1 | O=C(NNc1nc(-c2ccccc2)cs1)C(F)(F)F | > 100 | > 100 | > 100 | 93.5 | > 100 | > 100 | 47 | > 100 | > 100 | > 100
2 | C[Si](C)(C)C1=C([Si](C)(C)C)C(Cl)(Cl)C1=O | 7.14 | 23.3 | 1.53 | 2.88 | 23.4 | 18.4 | 3.99 | 34.6 | 36.5 | 7.69
3 | CCc1nc2ccc(NCCN(C)C)c3c(=O)c4ccccc4n1c23 | 7.89 | 3.4 | 8.68 | 22 | 21.1 | 3.23 | 7.78 | 6.98 | 16.5 | 8.06
4 | CN(C)/N=C1\CC(c2ccccc2)C(C#N)(C#N)C1(C#N)C#N (stereo not given) | 21.9 | 36.2 | > 100 | > 100 | > 100 | 53.1 | 47.2 | 40 | 54.1 | 41.8
5 | CC(C)(C)N(Cc1ccc2c(c1)OCO2)C(=O)/C=C\Sc1ccccc1 | > 100 | > 100 | > 100 | > 100 | > 100 | > 100 | > 100 | > 100 | > 100 | > 100
6 | CSc1c(C(=O)Nc2ccc(Cl)cc2)c(N)n(N)c(=O)c1C#N | > 100 | > 100 | > 100 | > 100 | > 100 | > 100 | > 100 | > 100 | > 100 | > 100
7 | O=C(CCc1ccccc1)ON1C(=S)C(c2ccccc2)(c2ccccc2)N=C1Sc1ccccc1 | > 100 | > 100 | > 100 | > 100 | > 100 | > 100 | 74.6 | > 100 | > 100 | > 100
8 | CNc1ncc(-c2nnnn2-c2ccccc2)c(CN(C)C)n1 | > 100 | > 100 | > 100 | > 100 | > 100 | > 100 | > 100 | > 100 | > 100 | > 100
9 | COc1ccc(/C=C/C2=NN(c3cccc(S(=O)(=O)O)c3)C3(C2)SCC(=O)N3c2nc3ccccc3s2)cc1 (stereo not given) | > 100 | > 100 | > 100 | > 100 | > 100 | > 100 | 84.5 | > 100 | > 100 | > 100
10 | COc1ccccc1C[C@@H]1OC2(C=CC(=O)C=C2)O[C@H]1Cc1ccccc1OC | 29.7 | > 50 | 29.8 | > 50 | 17.6 | 18.9 | 6.24 | 18.4 | 24.2 | 23.2
